# Results taken from patent USRE40086E1, “Method for treating bacterial infection with novel 7-substituted-9-substituted amino 6-demethyl-6-deoxytetracyclines” (Wyeth Holdings Corporation, priority 1991, dated 2008).
# “Also recorded” adds a separate entry of the source. Structures can show the parent of a compound that is named as a salt. Where two headings read alike, the source gives them in different places.
# Experiments:
# [1] = tested on: tetracycline sensitive and resistant Gram-positive and Gram-negative bacteria; assay: In vitro antibacterial evaluation, MIC by agar dilution (general, Tables I-V and IA); format: cell-based; conditions: summary of Tables I-V
# E. faecalis 12201 = assay: MIC, agar dilution; format: cell-based; conditions: Enterococcus faecalis, 12201
# E. faecalis ATCC 29212 = assay: MIC, agar dilution; format: cell-based; conditions: Enterococcus faecalis, ATCC29212
# [2] = tested on: S. aureus UBMS 90-3 (Sensitive); assay: MIC, agar dilution; format: cell-based; conditions: Staphylococcus aureus, S. aureus UBMS 90-3 (Sensitive)
# E. coli ATCC 25922 = assay: MIC, agar dilution; format: cell-based; conditions: Escherichia coli, ATCC25922
# E. coli UBMS 88-1 (tetB) = assay: MIC, agar dilution; format: cell-based; conditions: Escherichia coli, E. coli UBMS 88-1 (tetB)
# [3] = tested on: E. coli UBMS 89-2 (Sensitive); assay: MIC, agar dilution; format: cell-based; conditions: Escherichia coli
# Proteus spp. indole+ = assay: MIC against clinical isolates (Table V, A and O); format: cell-based
# Neisseria gonorrhoeae = assay: MIC against clinical isolates (Table V, A and O); format: cell-based
# [4] = tested on: S. aureus ATCC 29213 (Sensitive); assay: MIC, agar dilution; format: cell-based; conditions: Staphylococcus aureus, ATCC29213
# [5] = tested on: S. aureus UBMS 88-5 (tetM); assay: MIC, agar dilution; format: cell-based
# [6] = tested on: E. coli cell-free ribosomes, strain MRE 600 (TC Sensitive Host); assay: E. coli in vitro cell free protein translation system (Table VI); format: biochemical
# Enterococcus faecalis [7] = assay: MIC against clinical isolates (Table V, A and O); format: cell-based
# [8] = tested on: E. coli UBMS 88-2 (Sensitive); assay: MIC, agar dilution; format: cell-based; conditions: Escherichia coli
# [9] = tested on: S. aureus UBMS 88-4 (Sensitive); assay: MIC, agar dilution; format: cell-based; conditions: S. aureus UBMS 88-4 (Sensitive)
# [10] = tested on: S. aureus UBMS 88-7 (tetK); assay: MIC, agar dilution; format: cell-based; conditions: Staphylococcus aureus
# [11] = tested on: E. coli cell-free ribosomes, strain MRE 600 (tetM) (Tet M Host); assay: E. coli in vitro cell free protein translation system (Table VI); format: biochemical
# [12] = tested on: S. aureus UBMS 90-1 (tetM); assay: MIC, agar dilution; format: cell-based
# [13] = tested on: N. gonorrhoeae IL 611 (Sensitive); assay: MIC, agar dilution; format: cell-based; conditions: Neisseria gonorrhoeae
# E. coli UBMS 89-1 (tetM) = assay: MIC, agar dilution; format: cell-based; conditions: Escherichia coli
# [14] = tested on: S. aureus Smith (Sensitive); assay: MIC, agar dilution; format: cell-based; conditions: Staphylococcus aureus
# [15] = tested on: S. haemolyticus AVAH 88-3; assay: MIC, agar dilution; format: cell-based; conditions: Staphylococcus haemolyticus, AVAH883
# [16] = tested on: S. aureus UBMS 90-2 (tetM); assay: MIC, agar dilution; format: cell-based; conditions: Staphylococcus aureus, S. aureus UBMS 90-2 (tetM)
# Klebsiella pneumoniae = assay: MIC against clinical isolates (Table V, A and O); format: cell-based; conditions: Klebsiella pneumoniae
# Escherichia coli = assay: MIC against clinical isolates (Table V, A and O); format: cell-based; conditions: Escherichia coli
# Haemophilus influenzae [17] = assay: MIC against clinical isolates (Table V, A and O); format: cell-based; conditions: (18) tested
# [18] = tested on: S. aureus IVES 2943 (meth. resistant); assay: MIC, agar dilution; format: cell-based; conditions: Staphylococcus aureus
# S. aureus UBMS 90-2 = assay: In vivo antibacterial evaluation, acute lethal infection in mice; conditions: Staphylococcus aureus, UBMS902, sc, read-out: ED50, median effective dose protecting 50% of the infected mice; mice infected with S. aureus UBMS 90-2 (tetM), single subcutaneous dosing
# Description: (§1) In Vivo Antibacterial Evaluation (Table VII)
# S. aureus UBMS 90-1 = assay: as above; conditions: Staphylococcus aureus, UBMS901, sc, read-out: ED50, median effective dose protecting 50% of the infected mice; mice infected with S. aureus UBMS 90-1 (tetM), single subcutaneous dosing
# Description: as §1
# Enterococcus faecium [19] = assay: MIC against clinical isolates (Table V, A and O); format: cell-based
# [20] = tested on: E. faecalis UBMS 90-7 (tetM); assay: MIC, agar dilution; format: cell-based; conditions: Enterococcus faecalis
# [21] = tested on: S. aureus IVES 1983 (meth. resistant); assay: MIC, agar dilution; format: cell-based; conditions: Staphylococcus aureus
# Bacteroides spp. = assay: MIC against clinical isolates (Table V, A and O); format: cell-based
# [22] = tested on: N. gonorrhoeae 6418 (tetM); assay: MIC, agar dilution; format: cell-based; conditions: Neisseria gonorrhoeae
# E. coli UBMS 90-4 (tetM) = assay: MIC, agar dilution; format: cell-based; conditions: Escherichia coli
# [23] = tested on: E. faecalis UBMS 90-6 (tetM); assay: MIC, agar dilution; format: cell-based; conditions: Enterococcus faecalis
# Enterobacter aerogenes = assay: MIC vs recent clinical and agricultural isolates (Table V, KK); format: cell-based; conditions: [10] tested
# Listeria monocytogenes = assay: as above; format: cell-based; conditions: [8] tested
# Citrobacter freundii = assay: as above; format: cell-based; conditions: [10] tested
# [24] = tested on: Bacertoides fragilis group; assay: as above; format: cell-based; conditions: [10] tested
# Enterobacter cloacae = assay: as above; format: cell-based; conditions: [10] tested
# [25] = tested on: Staphylococcus aureus, methicillin-susceptible; assay: as above; format: cell-based; conditions: [15] tested
# Streptococcus agalactiae = assay: as above; format: cell-based; conditions: [10] tested
# Citrobacter diversus = assay: as above; format: cell-based; conditions: [10] tested
# Proteus vulgaris = assay: as above; format: cell-based; conditions: [18] tested
# Klebsiella oxytoca = assay: as above; format: cell-based; conditions: [10] tested
# [26] = tested on: Pasturella multocida (Agricultural & Clinical); assay: as above; format: cell-based; conditions: [17] tested
# Enterococcus faecalis [27] = assay: as above; format: cell-based; conditions: [10] tested
# Streptococcus pneumoniae = assay: as above; format: cell-based; conditions: [10] tested
# Haemophilus influenzae [28] = assay: as above; format: cell-based; conditions: [15] tested
# Streptococcus pyogenes = assay: as above; format: cell-based; conditions: [10] tested
# Pseudomonas aeruginosa = assay: as above; format: cell-based; conditions: [10] tested
# Moraxella catarrhalis = assay: as above; format: cell-based; conditions: [18] tested
# [29] = tested on: Bordetella bronchiseptica (Agricultural); assay: as above; format: cell-based; conditions: [10] tested
# Xanthomonas maltophilia = assay: as above; format: cell-based; conditions: [10] tested
# Proteus mirabilis = assay: as above; format: cell-based; conditions: [26] tested
# Enterococcus faecium [30] = assay: as above; format: cell-based; conditions: [10] tested
# Clostridium perfringens = format: cell-based; conditions: [16] tested
smiles,measurement,setting,value
CN(C)c1cc(NC=O)c(O)c2c1CC1CC3C(N(C)C)C(O)=C(C(N)=O)C(=O)C3(O)C(O)=C1C2=O (stereo not drawn),antibacterial activity in vitro (in words),[1],good in vitro activity against tetracycline resistant strains containing the tetM resistance determinant; also recorded: superior to that of minocycline against other isolates
"CN(C)c1cc(NC=O)c(O)c2c1CC1CC3C(N(C)C)C(O)=C(C(N)=O)C(=O)C3(O)C(O)=C1C2=O (stereo not drawn) [Compound A, 7-(Dimethylamino)-9-(formylamino)-6-demethyl-6-deoxytetracycline]",MIC,E. faecalis 12201,0.12 µg/mL
same,MIC,E. faecalis ATCC 29212,≤ 0.015 µg/mL
same,MIC,[2],≤ 0.015 µg/mL
same,MIC,E. coli ATCC 25922,0.06 µg/mL
same,MIC,E. coli UBMS 88-1 (tetB),32 µg/mL
same,MIC,[3],0.12 µg/mL
same,MIC50,Proteus spp. indole+,2 µg/mL
same,MIC90,Proteus spp. indole+,> 32 µg/mL
same,MIC50,Neisseria gonorrhoeae; Neisseria gonorrhoeae,0.03 µg/mL
same,MIC90,Neisseria gonorrhoeae; Neisseria gonorrhoeae,1 µg/mL
same,MIC Range,"Neisseria gonorrhoeae; Neisseria gonorrhoeae clinical isolates, (9) tested",0.015 to 1.00 µg/mL
same,MIC,[4],≤ 0.015 µg/mL
same,MIC,[5]; S. aureus UBMS 88-5 (tetM),0.03 µg/mL
same,MIC,"[5]; Staphylococcus aureus, S. aureus UBMS 88-5 (tetM)",0.06 µg/mL
same,"IC50, concentration of antibiotic required to inhibit protein synthesis by 50% compared to a drug-free control",[6],<0.3 µg/mL
same,MIC50,Enterococcus faecalis [7]; Enterococcus faecalis,0.12 µg/mL
same,MIC90,Enterococcus faecalis [7]; Enterococcus faecalis,1 µg/mL
same,MIC Range,"Enterococcus faecalis [7]; Enterococcus faecalis clinical isolates, (14) tested",<0.015 to 2.00 µg/mL
same,MIC,[8],0.12 µg/mL
same,MIC,[9],<0.015 µg/mL
same,MIC,[9]; Staphylococcus aureus,0.015 µg/mL
same,MIC,[10],2 µg/mL
same,"IC50, concentration of antibiotic required to inhibit protein synthesis by 50% compared to a drug-free control",[11],0.4 µg/mL
same,MIC,[12]; S. aureus UBMS 90-1 (tetM),0.12 µg/mL
same,MIC,"[12]; Staphylococcus aureus, S. aureus UBMS 90-1 (tetM)",0.06 µg/mL
same,MIC,[13],0.06 µg/mL
same,MIC,E. coli UBMS 89-1 (tetM),0.12 µg/mL
same,MIC,[14],≤ 0.015 µg/mL
same,MIC,[15],0.03 µg/mL
same,MIC,[16],0.03 µg/mL
same,MIC50,Klebsiella pneumoniae,0.5 µg/mL
same,MIC90,Klebsiella pneumoniae,0.5 µg/mL
same,MIC50,Escherichia coli,0.25 µg/mL
same,MIC90,Escherichia coli,> 32 µg/mL
same,MIC50,Haemophilus influenzae [17],0.06 µg/mL
same,MIC90,Haemophilus influenzae [17],0.06 µg/mL
same,MIC Range,Haemophilus influenzae [17],<0.008 to 0.06 µg/mL
same,MIC,[18],4 µg/mL
same,ED50,S. aureus UBMS 90-2,0.49 mg/kg
same,ED50,S. aureus UBMS 90-1,0.22 mg/kg
same,MIC50,Enterococcus faecium [19]; Enterococcus faecium,0.06 µg/mL
same,MIC90,Enterococcus faecium [19]; Enterococcus faecium,2 µg/mL
same,MIC Range,"Enterococcus faecium [19]; Enterococcus faecium clinical isolates, (11) tested",<0.015 to 2.00 µg/mL
same,MIC,[20],0.5 µg/mL
same,MIC,[21],8 µg/mL
same,MIC50,Bacteroides spp.; Bacteroides,0.25 µg/mL
same,MIC90,Bacteroides spp.; Bacteroides,2 µg/mL
same,MIC Range,"Bacteroides spp.; Bacteroides spp. clinical isolates, (15) tested",>0.15 to 4.00 µg/mL
same,MIC,[22],1 µg/mL
same,MIC,E. coli UBMS 90-4 (tetM),1 µg/mL
same,MIC,[23],0.12 µg/mL
"CN(C)[C@@H]1C(O)=C(C(N)=O)C(=O)[C@@]2(O)C(O)=C3C(=O)c4c(O)cccc4[C@@](C)(O)[C@H]3C[C@@H]12 [TC, Tetracycline hydrochloride]",MIC (range over isolates),Enterobacter aerogenes,0.5 to 1 µg/mL
same,MIC (range over isolates),Listeria monocytogenes,0.12 to 0.5 µg/mL
same,MIC,[2]; read-out: MIC,0.12 µg/mL
same,MIC (range over isolates),Citrobacter freundii,0.5 to 16 µg/mL
same,MIC (range over isolates),[24],0.25 to 32 µg/mL
same,MIC (range over isolates),Enterobacter cloacae,0.5 to 2 µg/mL
same,MIC,[5]; Staphylococcus aureus,32 µg/mL
same,MIC (range over isolates),[25],0.12 to 1 µg/mL
same,"IC50, concentration of antibiotic required to inhibit protein synthesis by 50% compared to a drug-free control",[6],0.6 µg/mL
same,MIC (range over isolates),Streptococcus agalactiae,0.25 to 64 µg/mL
same,MIC (range over isolates),Citrobacter diversus,0.5 to 4 µg/mL
same,MIC,"[9]; Staphylococcus aureus, read-out: MIC",0.12 µg/mL
same,"IC50, concentration of antibiotic required to inhibit protein synthesis by 50% compared to a drug-free control",[11],2.0 µg/mL
same,MIC,[12]; Staphylococcus aureus,32 µg/mL
same,MIC (range over isolates),Proteus vulgaris,0.25 to 64 µg/mL
same,MIC (range over isolates),Klebsiella oxytoca,0.5 to 1 µg/mL
same,MIC (range over isolates),[26],0.06 to 16 µg/mL
same,MIC (range over isolates),Enterococcus faecalis [27],0.12 to 64 µg/mL
same,MIC (range over isolates),Streptococcus pneumoniae,0.12 to 2 µg/mL
same,MIC (range over isolates),Haemophilus influenzae [28],1 to 32 µg/mL
same,MIC (range over isolates),Streptococcus pyogenes,0.12 to 16 µg/mL
same,MIC (range over isolates),Pseudomonas aeruginosa,2 to 32 µg/mL
same,MIC (range over isolates),Moraxella catarrhalis,0.06 to 0.5 µg/mL
same,MIC (range over isolates),[29],0.12 to 0.25 µg/mL
same,MIC,[20],32 µg/mL
same,MIC (range over isolates),Xanthomonas maltophilia,8 to 16 µg/mL
same,MIC,[22],> 32 µg/mL
same,MIC (range over isolates),Proteus mirabilis,0.5 to 64 µg/mL
same,MIC (range over isolates),Enterococcus faecium [30],0.12 to 64 µg/mL
same,MIC,E. coli UBMS 90-4 (tetM),64 µg/mL
same,MIC (range over isolates),Clostridium perfringens,0.015 to 16 µg/mL
same,MIC,[23],32 µg/mL
